Data set [1] is described as follows: Drug metabolism in po dosed mouse liver assessed as H2S release by measuring hydrogen sulfide level administered for 7 days and measured following 12 hrs fasting on day 7 (reference value: 93.8 +/- 6.1 nmol/g). In kind it is ADME, organism-based. The settings on record: in vivo.
The species entered for data set [2] is Mus musculus. The settings on record: at 13 mg/kg.
Description: Hypolipidemic activity in Triton WR1339-induced hyperlipidemia mouse model assessed as decrease in serum TG level at 13 mg/kg, ig administered for one week and administered with Triton WR 1339 on day 6 and measured after 24 hrs
Data set [3] is described as follows: Drug metabolism in po dosed mouse plasma assessed as H2S release by measuring hydrogen sulfide level administered for 7 days and measured following 12 hrs fasting on day 7 (reference value: 52.9 +/- 5.4 umol/L). As to conditions: in vivo. In kind it is ADME, organism-based.
Data set [4] deals with Rattus norvegicus. The data set can be described thus: Hepatoprotective activity in Met-induced hyperlipidemia rat model assessed as decrease in inflammatory cell infiltration in liver at 9 mg/kg, po administered with compound for last 30 days during feeding of 0.2% Met solution for 60 days by microscopic analysis. It counts as functional, organism-based.
The subject of data set [5] is Rattus norvegicus. The data set can be described thus: Hepatoprotective activity in Met-induced hyperlipidemia rat model assessed as decrease in serum AST level at 9 mg/kg, po administered with compound for last 30 days during feeding of 0.2% Met solution for 60 days. It counts as functional, organism-based.
The test system of data set [6] is Rattus norvegicus. The data set can be described thus: Upregulation of PPAR-alpha protein expression in liver of Met-induced hyperlipidemia rat model at 9 mg/kg, po administered with compound for last 30 days during feeding of 0.2% Met solution for 60 days. In kind it is functional, organism-based.
The species named for data set [7] is Mus musculus. The settings on record: at 13 mg/kg. This is another data set of the same source.
Description: Hypolipidemic activity in Triton WR1339-induced hyperlipidemia mouse model assessed as decrease in serum TC level at 13 mg/kg, ig administered for one week and administered with Triton WR 1339 on day 6 and measured after 24 hrs
The test system of data set [8] is Rattus norvegicus. The data set can be described thus: Antioxidant activity in Met-induced hyperlipidemia rat model assessed as increase in serum SOD level at 9 mg/kg, po administered with compound for last 30 days during feeding of 0.2% Met solution for 60 days. In kind it is functional, organism-based.
Data set [9] deals with Rattus norvegicus. In words: Antiinflammatory activity in Met-induced hyperlipidemia rat model assessed as decrease in serum IL-6 level at 9 mg/kg, po administered with compound for last 30 days during feeding of 0.2% Met solution for 60 days by ELISA. In kind it is functional, organism-based. On the technique in general: In an ELISA, binding on a coated surface is turned into a signal by an enzyme label.

Data set [10] relates to Rattus norvegicus. In words: Hypolipidemic activity in Met-induced hyperlipidemia rat model assessed as decrease in atherosclerosis index at 9 mg/kg, po administered with compound for last 30 days during feeding of 0.2% Met solution for 60 days. It counts as functional, organism-based.
The test system of data set [11] is Rattus norvegicus. In words: Hepatoprotective activity in Met-induced hyperlipidemia rat model assessed as improvement in hepatic tissue hemorrhagic symptoms at 9 mg/kg, po administered with compound for last 30 days during feeding of 0.2% Met solution for 60 days by microscopic analysis. In kind it is functional, organism-based.
The test system of data set [12] is Rattus norvegicus. The data set can be described thus: Hepatoprotective activity in Met-induced hyperlipidemia rat model assessed as decrease in serum ALT level at 9 mg/kg, po administered with compound for last 30 days during feeding of 0.2% Met solution for 60 days. In kind it is functional, organism-based.
Data set [13] concerns Rattus norvegicus. In words: Antioxidant activity in Met-induced hyperlipidemia rat model assessed as decrease in serum MDA level at 9 mg/kg, po administered with compound for last 30 days during feeding of 0.2% Met solution for 60 days. It counts as functional, organism-based.
Data set [14] relates to Rattus norvegicus. In words: Hypolipidemic activity in Met-induced hyperlipidemia rat model assessed as decrease in serum Hcy level at 9 mg/kg, po administered with compound for last 30 days during feeding of 0.2% Met solution for 60 days. It counts as functional, organism-based.
Data set [15] relates to Rattus norvegicus. In words: Antiinflammatory activity in Met-induced hyperlipidemia rat model assessed as decrease in serum TNF-alpha level at 9 mg/kg, po administered with compound for last 30 days during feeding of 0.2% Met solution for 60 days by ELISA. It counts as functional, organism-based.
For data set [16], the species on record is Mus musculus. As to conditions: at 13 mg/kg. This is another data set of the same source.
Description: Hypolipidemic activity in Triton WR1339-induced hyperlipidemia mouse model assessed as decrease in serum MDA level at 13 mg/kg, ig administered for one week and administered with Triton WR 1339 on day 6 and measured after 24 hrs
A short description of data set [17]: Drug metabolism in Met-induced hyperlipidemia rat model assessed as H2S release by measuring increase in serum hydrogen sulfide level at 9 mg/kg, po administered with compound for last 30 days during feeding of 0.2% Met solution for 60 days. It counts as ADME, organism-based. As to conditions: in vivo.
Data set [18] deals with Rattus norvegicus. The data set can be described thus: Vasorelaxation activity in Met-induced hyperlipidemia rat model assessed as effect on serum ET-1 level at 9 mg/kg, po administered with compound for last 30 days during feeding of 0.2% Met solution for 60 days. It counts as functional, organism-based.
Data set [19] has as its system Rattus norvegicus. In words: Hepatoprotective activity in Met-induced hyperlipidemia rat model assessed as decrease in red lipid droplets in hepatocytes at 9 mg/kg, po administered with compound for last 30 days during feeding of 0.2% Met solution for 60 days by oil red O-staining based microscopic analysis. It counts as functional, organism-based.
Data set [20] concerns Rattus norvegicus. In words: Hypolipidemic activity in Met-induced hyperlipidemia rat model assessed as decrease in serum TC level at 9 mg/kg, po administered with compound for last 30 days during feeding of 0.2% Met solution for 60 days. It counts as functional, organism-based.
The subject of data set [21] is Rattus norvegicus. The data set can be described thus: Hypolipidemic activity in Met-induced hyperlipidemia rat model assessed as decrease in serum TG level at 9 mg/kg, po administered with compound for last 30 days during feeding of 0.2% Met solution for 60 days. It counts as functional, organism-based.
Data set [22] concerns Rattus norvegicus. In words: Antioxidant activity in Met-induced hyperlipidemia rat model assessed as increase in serum T-AOC level at 9 mg/kg, po administered with compound for last 30 days during feeding of 0.2% Met solution for 60 days. In kind it is functional, organism-based.
Data set [23] has as its system Rattus norvegicus. In words: Hypolipidemic activity in Met-induced hyperlipidemia rat model assessed as increase in serum hydrogen sulfide level at 9 mg/kg, po administered with compound for last 30 days during feeding of 0.2% Met solution for 60 days. It counts as functional, organism-based.

Structures are written as SMILES. Calls of active or inactive are those of the source. No cut-off for these calls is given here.

For the compound `COC(=O)C(C)Oc1ccc(-c2cc(=S)ss2)cc1` (stereo unspecified), the Drug metabolism in [1] was 164.8 nmol/g; in data set [3], 119.3 µmol/L. Besides, in the data set listed under Mus musculus [2], the inhibition entry is “Active”.

With `COC(=O)C(C)(C)Oc1ccc(-c2cc(=S)ss2)cc1`, the outcome with Rattus norvegicus [4], in the data set on Rattus norvegicus [5], in the data set with Rattus norvegicus [6], in the data set with Rattus norvegicus [8], in the data set on Rattus norvegicus [11] and in the data set on Rattus norvegicus [12] was Active. Further, the result in the data set with Rattus norvegicus [19] and in the data set on Rattus norvegicus [22] was Active. Further, the Drug metabolism was 165.6 nmol/g in [1], 113.4 µmol/L in [3] and “Metabolite_Detected” in [17]. The inhibition result in the data set listed under Mus musculus [2], in the data set filed under Mus musculus [7], in the data set on Rattus norvegicus [9], in the data set on Rattus norvegicus [10], in the data set with Rattus norvegicus [13] and in the data set with Rattus norvegicus [14] was “Active” in each case. Also, the inhibition entry in the data set on Rattus norvegicus [15], in the data set listed under Mus musculus [16], in the data set with Rattus norvegicus [20] and in the data set with Rattus norvegicus [21] was “Active” each time. The outcome in the data set with Rattus norvegicus [18] was inactive.

On to `CC(C)OC(=O)C(C)(C)Oc1ccc(C(=O)c2ccc(Cl)cc2)cc1`, for which the result with Rattus norvegicus [5], in the data set with Rattus norvegicus [6], with Rattus norvegicus [23] and with Rattus norvegicus [19] was Active. Moreover, in the data set with Rattus norvegicus [12], the outcome was inactive.

On to `COC(=O)CCCOc1ccc(-c2cc(=S)ss2)cc1`, for which the Drug metabolism in data set [1] is 130.5 nmol/g; in [3], 95.5 µmol/L. Besides, the inhibition result in the data set filed under Mus musculus [2], in the data set filed under Mus musculus [7] and in the data set listed under Mus musculus [16] was “Active” each time.

For the compound `CCC(Oc1ccc(-c2cc(=S)ss2)cc1)C(=O)OC` (stereo unspecified), the Drug metabolism was 159.5 nmol/g in data set [1] and 128.8 µmol/L in [3]. Further, the inhibition result in the data set listed under Mus musculus [2] and in the data set listed under Mus musculus [16] was “Active” throughout.

For `COC(=O)CCCCCOc1ccc(-c2cc(=S)ss2)cc1`, the Drug metabolism was 132.1 nmol/g in [1] and 93.7 µmol/L in data set [3]. In the data set listed under Mus musculus [2], the inhibition result is “Active”.

`COc1ccc(-c2cc(=S)ss2)cc1` [ANETHOLTRITHION]: the Drug metabolism in [1] was 181.3 nmol/g; in data set [3], 184.6 µmol/L. The inhibition result in the data set filed under Mus musculus [2] and in the data set listed under Mus musculus [7] was “inactive” each time. The inhibition entry in the data set listed under Mus musculus [16] is “Active”.

Consider `COC(=O)CCCCOc1ccc(-c2cc(=S)ss2)cc1`, for which the Drug metabolism in [1] is 155.5 nmol/g; in data set [3] it was 86.5 µmol/L. The inhibition entry in the data set filed under Mus musculus [2] and in the data set listed under Mus musculus [7] was “Active” throughout.
